We go through 25 compounds from patent publication US11498896B2 (The Broad Institute, Inc., priority 2014, dated 2022).

The structures appear in SMILES notation.

For assay [1], the target named is T1, human D2R/β-arrestin (Homo sapiens (Human), UniProt P14416). Put plainly: Gi/cAMP agonist assay (Lance Ultra cAMP, forskolin). The note with it: CHO-K1 cells expressing human D2R/β-arrestin; agonist mode, 2.5 μM forskolin. The format is cell-based. As to the method: Eu-cAMP tracer solution (10 μl, PerkinElmer, 360 μl of Tracer in 17.64 ml kit buffer) and ULight-anti-cAMP solution (10 μl, 120 μL antibody in 17.88 ml kit buffer) was then added to each well.
T1 sequence (P14416 whole entry): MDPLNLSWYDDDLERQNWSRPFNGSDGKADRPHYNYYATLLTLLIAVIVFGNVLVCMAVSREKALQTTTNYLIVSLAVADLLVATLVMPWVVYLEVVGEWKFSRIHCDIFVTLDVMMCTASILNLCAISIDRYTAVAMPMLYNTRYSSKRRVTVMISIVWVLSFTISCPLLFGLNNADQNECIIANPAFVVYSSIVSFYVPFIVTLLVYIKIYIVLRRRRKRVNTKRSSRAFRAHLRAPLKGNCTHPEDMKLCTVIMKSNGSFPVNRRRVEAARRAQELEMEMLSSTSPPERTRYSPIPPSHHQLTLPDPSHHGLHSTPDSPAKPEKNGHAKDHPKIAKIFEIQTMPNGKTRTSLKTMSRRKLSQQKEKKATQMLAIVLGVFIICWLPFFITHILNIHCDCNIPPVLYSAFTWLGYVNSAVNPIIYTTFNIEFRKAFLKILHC

Assay [2] deals with T1, human D2R/β-arrestin. Put plainly: β-arrestin agonist assay (PathHunter). Format: cell-based. As to conditions: CHO-K1 cells expressing human D2R/β-arrestin; agonist mode. The protocol: The detection reagent (9.6 μL, Buffer:Emerald II:Galactor-Star in a 19:5:1 ratio, i.e., 14.06 mL:3.7 mL:0.74 mL=18.5 mL) was then added to the agonist plates.
For assay [3], the target named is T1, human D2R/β-arrestin. Kind of assay: cell-based. The note with it: cAMP Antagonist, CHO-K1 cells expressing human D2R/β-arrestin; antagonist mode, 2.5 μM forskolin and 2.7 nM quinpirole.
Protocol: Cells were prepared for assays by growing cultures for up to 2 weeks (from about 6-20 passages). A vial of frozen cells was thawed in a water bath held at 37° C. The cells were then transferred into a 50 ml tube with 10 ml growth media. The vial was rinsed with growth media and the contents transferred to the 50 ml tube. The 50 ml tube was centrifuged at 1200 rpm for 5 minutes at room temperature. […] When the cells reached about 90% confluence (approximately 3 days between passages), the cells were passaged and used for either the agonist or antagonist assays as described below.
The cells were prepared for Gi/cAMP assays as described above. The assays were performed using a PE Lance Ultra cAMP kit (TRF0263). The cells were grown on 225 mm dishes, then washed once with 1×PBS (Cellgro) before digestion with 2.5 ml 1× Detachment reagent (DRX 92-0009) for about 2 minutes. PBS (20 ml) was then added to the plate, and the cells were transferred to a 50 ml centrifuge tube, and centrifuged at room temperature using BD Dynac III, at 1200 rpm for 5 minutes. […] The plates were then incubated at room temperature for about 30 minutes before addition of Eu-cAMP tracer solution (10 μl, PerkinElmer) and then ULight-anti-cAMP solution (10 μl) to each well.
Assay [4] addresses T1, human D2R/β-arrestin. Kind of assay: cell-based. The note with it: β-arrestin Antagonist, CHO-K1 cells expressing human D2R/β-arrestin; antagonist mode, quinpirole 130 nM.
Another assay deals with D2 receptor (Homo sapiens (Human), UniProt P14416). Put plainly: D2 radioligand binding assay.
Chain of D2 receptor (P14416 whole entry): as above

In the case of `CNC(=O)C1(C)CCN(CC2COc3ccccc3O2)CC1` (single isomer, unassigned) [Compound 202b, 1-((2,3-dihydrobenzo[b][1,4]dioxin-2-yl)methyl)-N,4-dimethylpiperidine-4-carboxamide], the 50% effective concentration (EC50) (usually the concentration at which the effect is half-maximal) at human D2R/β-arrestin [1] is 0.1 to 1 µM; on human D2R/β-arrestin [2], greater than 30 µM. Besides, the half-inhibitory concentration (IC50) at human D2R/β-arrestin [3] and against human D2R/β-arrestin [4] was 0.1 to 1 µM each time. Besides, the Ki (usually a measure of affinity in units of concentration, obtained from inhibition or displacement) on D2 receptor lay in the range of 1 to 10 µM.

As to `CC1(Oc2ccc(Cl)cc2)CCN(CCOc2ccccc2)C1` (stereo not shown) [Compound 1, 3-(4-chlorophenoxy)-3-methyl-1-(2-phenoxyethyl)pyrrolidine], the figures for the concentration giving a half-maximal response (EC50) on human D2R/β-arrestin [1] and on human D2R/β-arrestin [2] were less than 0.1 µM and greater than 30 µM, respectively. The concentration for half-maximal inhibition (IC50) (as a rule, the point on the concentration scale where inhibition reaches its midpoint) against human D2R/β-arrestin [3] was greater than 30 µM; at human D2R/β-arrestin [4], 1 to 10 µM. Also, the Ki on D2 receptor was in the range of 1 to 10 µM.

On to `CC1(Oc2ccc(Cl)cc2)CCN(CCn2ccccc2=O)C1` (stereo not shown) [Compound 7, 1-(2-(3-(4-chlorophenoxy)-3-methylpyrrolidin-1-yl)ethyl)pyridin-2(1H)-one], for which the EC50 on human D2R/β-arrestin [1] and at human D2R/β-arrestin [2] was greater than 30 µM throughout. In addition, the IC50 on human D2R/β-arrestin [3] and on human D2R/β-arrestin [4] was greater than 30 µM throughout. Besides, the inhibition constant Ki on D2 receptor was 10 to 30 µM.

Take `CC1(Oc2ccc(Cl)cc2)CCN(CCCCOc2ccccc2F)C1` (stereo not shown) [Compound 27, 3-(4-chlorophenoxy)-1-(4-(2-fluorophenoxy)butyl)-3-methylpyrrolidine]: the concentration for a half-maximal effect (EC50) at human D2R/β-arrestin [1] and at human D2R/β-arrestin [2] was greater than 30 µM throughout. The IC50 on human D2R/β-arrestin [3] was in the range of 0.1 to 1 µM; at human D2R/β-arrestin [4], 1 to 10 µM. On D2 receptor, this compound had an inhibitory constant (Ki) of 0.1 to 1 µM.

As for `CC1(Oc2ccc(Cl)cc2)CCN(CCOc2cc(F)ccc2C(F)(F)F)CC1` [Compound 122, 4-(4-Chlorophenoxy)-1-(2-(5-fluoro-2-(trifluoromethyl)phenoxy)ethyl)-4-methylpiperidine], the EC50 at human D2R/β-arrestin [1] is less than 0.1 µM; at human D2R/β-arrestin [2], greater than 30 µM. Further, the half-maximal inhibitory concentration (IC50) at human D2R/β-arrestin [3] is greater than 30 µM; against human D2R/β-arrestin [4], 0.1 to 1 µM. The same compound came in with a Ki at D2 receptor of 0.1 to 1 µM.

Take `COC1(C)CCN(CCOc2ccccc2C(F)(F)F)CC1` [Compound 123, 4-methoxy-4-methyl-1-(2-(2-(trifluoromethyl)phenoxy)ethyl) piperidine]: the EC50 at human D2R/β-arrestin [1] and at human D2R/β-arrestin [2] was greater than 30 µM in each case. Further, the IC50 against human D2R/β-arrestin [3] and against human D2R/β-arrestin [4] was 0.1 to 1 µM throughout. This compound also registered a Ki on D2 receptor of less than 0.1 µM.

Regarding `FC(F)(F)c1ccccc1OCCN1CCC2(CCCN2c2ccc(Cl)cc2)CC1` [Compound 135, 1-(4-Chlorophenyl)-8-(2-(2-(trifluoromethyl)phenoxy)ethyl)-1,8-diazaspiro[4.5]decane], the concentration for a half-maximal effect (EC50) at human D2R/β-arrestin [1] and at human D2R/β-arrestin [2] was greater than 30 µM throughout. Moreover, the IC50 against human D2R/β-arrestin [3] and on human D2R/β-arrestin [4] was less than 0.1 µM in each case. Also, the inhibitory constant (Ki) on D2 receptor is less than 0.1 µM.

Regarding `Fc1ccccc1OCCN1CCC2(CC1)CCN2c1ccc(Cl)cc1` [Compound 137, 1-(4-chlorophenyl)-7-(2-(2-fluorophenoxy)ethyl)-1,7-diazaspiro[3.5]nonane], the half-maximal effective concentration (EC50) at human D2R/β-arrestin [1] and on human D2R/β-arrestin [2] was greater than 30 µM in each case. In addition, the half-inhibitory concentration (IC50) against human D2R/β-arrestin [3] and on human D2R/β-arrestin [4] was less than 0.1 µM in each case. On D2 receptor, the Ki is less than 0.1 µM.

Regarding `CC1(O)CCN(CC2COc3ccccc3O2)CC1` (stereo not shown) [Compound 140, 1-((2,3-dihydrobenzo[b][1,4]dioxin-2-yl)methyl)-4-methylpiperidin-4-ol], the 50% effective concentration (EC50) on human D2R/β-arrestin [1] was less than 0.1 µM; on human D2R/β-arrestin [2], 1 to 10 µM. In addition, the half-maximal inhibitory concentration (IC50) against human D2R/β-arrestin [3] was greater than 30 µM; against human D2R/β-arrestin [4], 0.1 to 1 µM. In addition, the inhibition constant (Ki) at D2 receptor lay within 10 to 30 µM.

Consider `Clc1ccc2c(c1)CC1(CCN(CCOc3ccccc3)C1)O2` (stereo not shown) [Compound 144, 5-chloro-1′-(2-phenoxyethyl)-3H-spiro[benzofuran-2,3′-pyrrolidine]], for which the 50% effective concentration (EC50) at human D2R/β-arrestin [1] and on human D2R/β-arrestin [2] was greater than 30 µM in each case. Further, the results for the half-inhibitory concentration (IC50) at human D2R/β-arrestin [3] and against human D2R/β-arrestin [4] were 0.1 to 1 µM and 1 to 10 µM, respectively. For the same compound, the inhibitory constant (Ki) at D2 receptor fell in the range of 0.1 to 1 µM.

For `CC1(Oc2ccccn2)CCN(CCOc2ccc(C(F)(F)F)cc2)CC1` [Compound 164, 2-((4-methyl-1-(2-(4-(trifluoromethyl)phenoxy)ethyl)piperidin-4-yl)oxy)pyridine], the EC50 is 0.1 to 1 µM at human D2R/β-arrestin [1] and greater than 30 µM on human D2R/β-arrestin [2]. For the same compound, the concentration for half-maximal inhibition (IC50) against human D2R/β-arrestin [3] is greater than 30 µM; at human D2R/β-arrestin [4], 10 to 30 µM. The Ki on D2 receptor lay within 10 to 30 µM.

Turning to `CN(C)C(=O)C1(C)CCN(C[C@H]2COc3ccccc3O2)CC1` [Compound 205, (S)-1-((2,3-dihydrobenzo[b][1,4]dioxin-2-yl)methyl)-N,N,4-trimethylpiperidine-4-carboxamide], the 50% effective concentration (EC50) is less than 0.1 µM at human D2R/β-arrestin [1] and 0.1 to 1 µM on human D2R/β-arrestin [2]. The concentration for half-maximal inhibition (IC50) against human D2R/β-arrestin [3] is greater than 30 µM; on human D2R/β-arrestin [4], 0.1 to 1 µM. On D2 receptor, this compound displayed an inhibition constant Ki of 0.1 to 1 µM.

For `O=[N+]([O-])c1ccc(OC2(c3ccccc3)CCN(CCOc3ccccc3)C2)cc1` (stereo not shown) [Example 94, 3-(4-nitrophenoxy)-1-(2-phenoxyethyl)-3-phenylpyrrolidine], the concentration giving a half-maximal response (EC50) on human D2R/β-arrestin [1] is 0.1 to 1 µM; on human D2R/β-arrestin [2], greater than 30 µM. Further, the IC50 at human D2R/β-arrestin [3] and against human D2R/β-arrestin [4] was 1 to 10 µM each time.

Take `CC1(Oc2ccc(Cl)cc2)CCCN(CCOc2ccccc2Cl)C1` (stereo not shown) [Example 97, 3-(4-chlorophenoxy)-1-(2-(2-chlorophenoxy)ethyl)-3-methylpiperidine]: the half-maximal effective concentration (EC50) at human D2R/β-arrestin [1] and at human D2R/β-arrestin [2] was greater than 30 µM in each case. Further, the IC50 at human D2R/β-arrestin [3] is less than 0.1 µM; at human D2R/β-arrestin [4] it was 0.1 to 1 µM.

As for `CC1(Oc2ccc(Cl)cc2)CCCN(CCOc2ccccc2F)C1` (stereo not shown) [Example 98, 3-(4-Chlorophenoxy)-1-(2-(2-fluorophenoxy)ethyl)-3-methylpiperidine], the EC50 at human D2R/β-arrestin [1] and on human D2R/β-arrestin [2] was greater than 30 µM in each case. For the same compound, the IC50 against human D2R/β-arrestin [3] is less than 0.1 µM; at human D2R/β-arrestin [4], 0.1 to 1 µM.

Take `CC1(Oc2cccc(C(F)(F)F)c2)CCCN(CCOc2ccccc2)C1` (stereo not shown) [Example 100, 3-methyl-1-(2-phenoxyethyl)-3-(3-(trifluoromethyl)phenoxy)piperidine]: the EC50 on human D2R/β-arrestin [1] and on human D2R/β-arrestin [2] was greater than 30 µM throughout. Further, the IC50 against human D2R/β-arrestin [3] fell in the range of 0.1 to 1 µM; on human D2R/β-arrestin [4], 1 to 10 µM.

Turning to `FC(F)(F)c1ccccc1OCCN1CCC(=Cc2ccccc2)CC1` [Example 101, 4-benzylidene-1-(2-(2-(trifluoromethyl)phenoxy)ethyl)piperidine], the EC50 on human D2R/β-arrestin [1] and on human D2R/β-arrestin [2] was greater than 30 µM in each case. In addition, the IC50 on human D2R/β-arrestin [3] and against human D2R/β-arrestin [4] was 1 to 10 µM throughout.

`FC(F)(F)c1ccccc1OCCN1CCC2(CC1)CC2c1ccccc1` (stereo not shown) [Example 102, 1-Phenyl-6-(2-(2-(trifluoromethyl)phenoxy)ethyl)-6-azaspiro[2.5]octane]: the EC50 is 0.1 to 1 µM on human D2R/β-arrestin [1] and greater than 30 µM at human D2R/β-arrestin [2]. Moreover, the IC50 against human D2R/β-arrestin [3] and on human D2R/β-arrestin [4] was 1 to 10 µM in each case.

With `OC(c1ccccc1)C1(O)CCN(CCOc2ccccc2C(F)(F)F)CC1` (stereo not shown) [Example 103, 4-(Hydroxy(phenyl)methyl)-1-(2-(2-(trifluoromethyl)phenoxy)ethyl) piperidin-4-ol], the concentration giving a half-maximal response (EC50) on human D2R/β-arrestin [1] and on human D2R/β-arrestin [2] was greater than 30 µM in each case. For the same compound, the 50% inhibitory concentration (IC50) against human D2R/β-arrestin [3] and against human D2R/β-arrestin [4] was 0.1 to 1 µM each time.

For the compound `CC1(Oc2ccccc2Cl)CCN(CCOc2ccccc2C(F)(F)F)CC1` [Example 104, 4-(2-Chlorophenoxy)-4-methyl-1-(2-(2-(trifluoromethyl)phenoxy)ethyl) piperidine], the half-maximal effective concentration (EC50) at human D2R/β-arrestin [1] is 10 to 30 µM; on human D2R/β-arrestin [2], greater than 30 µM. In addition, the figures for the IC50 at human D2R/β-arrestin [3] and against human D2R/β-arrestin [4] were 1 to 10 µM and 0.1 to 1 µM, respectively.

Turning to `CC1(Oc2ccccn2)CCN(CCOc2ccccc2C(F)(F)F)CC1` [Example 105, 2-((4-methyl-1-(2-(2-(trifluoromethyl)phenoxy)ethyl)piperidin-4-yl)oxy) pyridine], the concentration giving a half-maximal response (EC50) was less than 0.1 µM on human D2R/β-arrestin [1] and greater than 30 µM on human D2R/β-arrestin [2]. Besides, the half-maximal inhibitory concentration (IC50) on human D2R/β-arrestin [3] was less than 0.1 µM; against human D2R/β-arrestin [4] it was 0.1 to 1 µM.

For the compound `CC1(C(O)c2ccccc2)CCN(CCOc2ccccc2C(F)(F)F)CC1` (stereo not shown) [Example 107, (4-methyl-1-(2-(2-(trifluoromethyl)phenoxy)ethyl)piperidin-4-yl)(phenyl)methanol], the EC50 was less than 0.1 µM at human D2R/β-arrestin [1] and 10 to 30 µM at human D2R/β-arrestin [2]. Besides, the half-maximal inhibitory concentration (IC50) on human D2R/β-arrestin [3] and at human D2R/β-arrestin [4] was 0.1 to 1 µM in each case.

Regarding `CC1(Oc2ccc(Cl)cc2)CCCN(C(C)(C)COc2ccccc2)C1` (stereo not shown) [Example 108, 3-(4-Chlorophenoxy)-3-methyl-1-(2-methyl-1-phenoxypropan-2-yl)piperidine], the EC50 at human D2R/β-arrestin [1] and on human D2R/β-arrestin [2] was greater than 30 µM in each case. The values for the IC50 at human D2R/β-arrestin [3] and against human D2R/β-arrestin [4] were 1 to 10 µM and 10 to 30 µM, respectively.

In the case of `CC1(Oc2ccccc2)CCN(CCOc2ccccc2C#N)CC1` [Example 109, 2-(2-(4-methyl-4-phenoxypiperidin-1-yl)ethoxy)benzonitrile], the EC50 on human D2R/β-arrestin [1] and on human D2R/β-arrestin [2] was less than 0.1 µM in each case. Also, the half-maximal inhibitory concentration (IC50) against human D2R/β-arrestin [3] was greater than 30 µM; against human D2R/β-arrestin [4], less than 0.1 µM.

In the case of `CN(C)c1ccccc1OCCN1CCC(C)(Oc2ccccc2)CC1` [Example 111, N,N-dimethyl-2-(2-(4-methyl-4-phenoxypiperidin-1-yl)ethoxy)aniline], the EC50 at human D2R/β-arrestin [1] and at human D2R/β-arrestin [2] was greater than 30 µM throughout. Also, the IC50 was in the range of 0.1 to 1 µM against human D2R/β-arrestin [3] and 1 to 10 µM at human D2R/β-arrestin [4].
